In experiment [1] the target is T1, hDAT (Homo sapiens, UniProt Q01959). The experiment can be described thus: PDSP screen: [^3H]24 binding at hDAT. The settings on record: for inhibition at 10 µM: read-out: hDAT Binding Inhibition, % of control; for remaining activity at 10 µM: read-out: hDAT Binding Enhancement, % of control.
Experiment [2] concerns the target T1, hDAT. The settings on record: 10 μM; [^3H]24 binding, PDSP; ref Janowsky et al.[3]; cited from earlier work.
The target in another experiment is T2, mA3AR (Mus musculus, UniProt Q61618).
T2 sequence (Q61618 1-319): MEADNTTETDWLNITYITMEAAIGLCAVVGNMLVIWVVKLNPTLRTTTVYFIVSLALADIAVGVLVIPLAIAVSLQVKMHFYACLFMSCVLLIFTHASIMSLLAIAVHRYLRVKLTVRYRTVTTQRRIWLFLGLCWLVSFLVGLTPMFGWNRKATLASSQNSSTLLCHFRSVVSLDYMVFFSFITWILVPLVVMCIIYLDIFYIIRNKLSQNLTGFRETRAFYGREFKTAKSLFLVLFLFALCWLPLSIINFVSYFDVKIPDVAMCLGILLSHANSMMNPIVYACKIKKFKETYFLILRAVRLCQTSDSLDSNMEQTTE
The experiment in a line: A3AR radioligand. In kind it is binding. Conditions: for A3AR Binding % at 10 μM (m): mouse, % inhibition at 10 μM, radioligand [^125I]25.

In experiment [3] the target is T1, hDAT. The experiment in a line: [^125I]23 binding to HEK-hDAT membranes. The settings on record: maximal enhancement.
The target in another experiment is hNET (Homo sapiens, UniProt P23975). The experiment in a line: [^125I]23 binding to HEK-hNET membranes. The settings on record: maximal enhancement.
Chain of hNET (P23975 whole entry): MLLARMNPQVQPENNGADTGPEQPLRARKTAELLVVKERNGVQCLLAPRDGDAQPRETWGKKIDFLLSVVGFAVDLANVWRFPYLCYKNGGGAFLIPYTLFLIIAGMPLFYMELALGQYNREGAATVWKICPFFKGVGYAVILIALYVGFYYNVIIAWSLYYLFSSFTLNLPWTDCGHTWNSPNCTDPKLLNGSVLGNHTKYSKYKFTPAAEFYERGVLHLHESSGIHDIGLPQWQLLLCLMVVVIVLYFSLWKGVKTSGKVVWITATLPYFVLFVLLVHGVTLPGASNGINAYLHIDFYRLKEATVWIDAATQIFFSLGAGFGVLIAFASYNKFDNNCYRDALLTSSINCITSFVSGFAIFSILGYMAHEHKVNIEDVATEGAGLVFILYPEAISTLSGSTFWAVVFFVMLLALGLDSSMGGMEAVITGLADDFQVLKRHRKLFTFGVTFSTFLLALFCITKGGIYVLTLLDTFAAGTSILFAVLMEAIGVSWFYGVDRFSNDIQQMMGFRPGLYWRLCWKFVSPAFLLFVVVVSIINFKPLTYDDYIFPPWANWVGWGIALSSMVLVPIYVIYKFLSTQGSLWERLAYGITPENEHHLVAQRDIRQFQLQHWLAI
Experiment [4] concerns mouse chronic constriction injury (CCI) model of neuropathic pain. The experiment can be described thus: mouse chronic constriction injury. Conditions: 3 μmol/kg, p.o.; 7 d post-injury. Type of experiment: in vivo.

Read-outs that look alike come from different tables or passages of the source. Bounds are passed on as bounds.

T1 sequence (Q01959 whole entry): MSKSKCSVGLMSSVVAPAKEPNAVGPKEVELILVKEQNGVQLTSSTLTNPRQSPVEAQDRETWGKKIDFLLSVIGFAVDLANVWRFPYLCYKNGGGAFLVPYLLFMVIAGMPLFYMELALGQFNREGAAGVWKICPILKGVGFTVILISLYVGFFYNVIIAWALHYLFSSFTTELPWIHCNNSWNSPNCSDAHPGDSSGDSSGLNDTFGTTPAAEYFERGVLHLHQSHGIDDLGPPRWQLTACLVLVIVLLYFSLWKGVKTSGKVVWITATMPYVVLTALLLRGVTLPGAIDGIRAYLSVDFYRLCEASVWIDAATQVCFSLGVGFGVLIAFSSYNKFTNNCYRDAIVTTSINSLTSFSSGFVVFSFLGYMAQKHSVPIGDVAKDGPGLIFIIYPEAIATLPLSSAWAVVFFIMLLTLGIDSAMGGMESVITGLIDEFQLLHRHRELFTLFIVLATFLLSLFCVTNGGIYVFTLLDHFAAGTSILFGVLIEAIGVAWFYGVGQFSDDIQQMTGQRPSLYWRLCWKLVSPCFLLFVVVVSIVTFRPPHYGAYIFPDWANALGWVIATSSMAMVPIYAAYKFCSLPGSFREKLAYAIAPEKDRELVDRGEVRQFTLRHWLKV

For the compound `CCNc1cc(C#Cc2ccc(Cl)s2)nc2c1ncn2[C@H]1[C@H](O)[C@H](O)[C@]2(C(=O)NC)C[C@H]12` [5b], the inhibition at 10 µM on hDAT [1] was -20 to 20%.

For `CNC(=O)[C@@]12C[C@@H]1[C@@H](n1cnc3c(NC)nc(C#Cc4ccc(Br)s4)nc31)[C@H](O)[C@@H]2O` [compound 2], the “hDAT Binding Inhibition, % of control” value on hDAT [2] was “NE (no effect)”.

As to `CNC(=O)[C@@]12C[C@@H]1[C@@H](n1cnc3c(NC)nc(C#Cc4ccc(F)c(F)c4)nc31)[C@H](O)[C@@H]2O` [compound 3], the “hDAT Binding Inhibition, % of control” value on hDAT [2] is “NE (no effect)”.

Regarding `CNC(=O)[C@@]12C[C@@H]1[C@@H](n1cnc3c(NC)nc(C#Cc4ccc(Cl)s4)cc31)[C@H](O)[C@@H]2O` [compound 6, (1S,2R,3S,4R,5S)-4-(6-((5-Chlorothiophen-2-yl)ethynyl)-4-(methylamino)-1H-imidazo[4,5-c]pyridin-1-yl)-2,3-dihydroxy-N-methylbicyclo[3.1.0]hexane-1-carboxamide], the inhibition at 10 µM at hDAT [1] is below -20%. Moreover, the “A3AR Binding % at 10 μM (m)” value at mA3AR is recorded as below 50%.

As for `CCCNc1nc(C#Cc2ccc(Cl)s2)nc2c1ncn2[C@H]1[C@H](O)[C@H](O)[C@]2(C(=O)NC)C[C@H]12` [compound 7], the “fold greater mA3AR affinity compared to ribose 5′-amide 28” value at mA3AR is given as 88 fold. For the same compound, on hDAT [2], the “hDAT Binding Inhibition, % of control” value is “NE (no effect)”.

`CNc1nc(C#Cc2ccc(Cl)s2)nc2c1ncn2[C@H]1[C@H](O)[C@H](O)[C@]2(C(=O)NCCN)C[C@H]12` [compound 8, (1S,2R,3S,4R,5S)-N-(2-Aminoethyl)-4-(2-((5-chlorothiophen-2-yl)ethynyl)-6-(methylamino)-9H-purin-9-yl)-2,3-dihydroxybicyclo[3.1.0]hexane-1-carboxamide]: on hDAT [1], the remaining activity at 10 µM was 133% and the inhibition at 10 µM is below -20%.

Consider `CNc1nc(C#Cc2ccc(Cl)s2)nc2c1ncn2[C@H]1[C@H](O)[C@H](O)[C@]2(C(=O)OC)C[C@H]12` [compound 9, Methyl (1S,2R,3S,4R,5S)-4-(2-((5-chlorothiophen-2-yl)ethynyl)-6-(methylamino)-9H-purin-9-yl)-2,3-dihydroxybicyclo[3.1.0]hexane-1-carboxylate], for which, on hDAT [1], the remaining activity at 10 µM was 391% and the inhibition at 10 µM is below -20%. Also, at mA3AR, the inhibition constant Ki is above 10 µM and the “A3AR Binding % at 10 μM (m)” value was below 50%. Besides, at hDAT [3], the “hDAT [^125I]23 binding, % control binding” value is on record as around 450%. Besides, at hNET, the “hNET [^125I]23 binding, % control binding” value is reported as around 370%.

On to `CCOC(=O)[C@@]12C[C@@H]1[C@@H](n1cnc3c(NC)nc(C#Cc4ccc(Cl)s4)nc31)[C@H](O)[C@@H]2O` [compound 10, Ethyl (1S,2R,3S,4R,5S)-4-(2-((5-chlorothiophen-2-yl)ethynyl)-6-(methylamino)-9H-purin-9-yl)-2,3-dihydroxybicyclo[3.1.0]hexane-1-carboxylate], for which the inhibition at 10 µM on hDAT [1] was below -20%. The “A3AR Binding % at 10 μM (m)” value on mA3AR is given as below 50%. The “hNET [^125I]23 binding, % control binding” value at hNET was around 370%.

In the case of `CNc1nc(C#Cc2ccc(Br)s2)nc2c1ncn2[C@H]1[C@H](O)[C@H](O)[C@]2(C(=O)OC)C[C@H]12` [compound 11, Methyl (1S,2R,3S,4R,5S)-4-(2-((5-bromothiophen-2-yl)ethynyl)-6-(methylamino)-9H-purin-9-yl)-2,3-dihydroxybicyclo[3.1.0]hexane-1-carboxylate], the inhibition at 10 µM at hDAT [1] was below -20%.

Consider `CCOC(=O)[C@@]12C[C@@H]1[C@@H](n1cnc3c(NC)nc(C#Cc4ccc(Br)s4)nc31)[C@H](O)[C@@H]2O` [compound 12, Ethyl (1S,2R,3S,4R,5S)-4-(2-((5-bromothiophen-2-yl)ethynyl)-6-(methylamino)-9H-purin-9-yl)-2,3-dihydroxybicyclo[3.1.0]hexane-1-carboxylate], for which the inhibition at 10 µM on hDAT [1] is below -20%.

Take `CCOC(=O)[C@@]12C[C@@H]1[C@@H](n1cnc3c(NC)nc(C#Cc4ccc(Cl)s4)cc31)[C@H](O)[C@@H]2O` [compound 13, Ethyl (1S,2R,3S,4R,5S)-4-(6-((5-chlorothiophen-2-yl)ethynyl)-4-(methylamino)-1H-imidazo[4,5-c]pyridin-1-yl)-2,3-dihydroxybicyclo[3.1.0]hexane-1-carboxylate]: on hDAT [1], the inhibition at 10 µM is below -20%.

`CCCOC(=O)[C@@]12C[C@@H]1[C@@H](n1cnc3c(NC)nc(C#Cc4ccc(Cl)s4)nc31)[C@H](O)[C@@H]2O` [compound 14, n-Propyl (1S,2R,3S,4R,5S)-4-(2-((5-chlorothiophen-2-yl)ethynyl)-6-(methylamino)-9H-purin-9-yl)-2,3-dihydroxybicyclo[3.1.0]hexane-1-carboxylate]: the inhibition at 10 µM at hDAT [1] was below -20%.

For the compound `CNc1nc(C#Cc2ccc(Cl)s2)nc2c1ncn2[C@H]1[C@H](O)[C@H](O)[C@]2(C(=O)OC(C)C)C[C@H]12` [compound 15, Isopropyl (1S,2R,3S,4R,5S)-4-(2-((5-chlorothiophen-2-yl)ethynyl)-6-(methylamino)-9H-purin-9-yl)-2,3-dihydroxybicyclo[3.1.0]hexane-1-carboxylate], the “hDAT Binding Inhibition, % of control” value at hDAT [1] (10 μM, [^3H]24 binding, PDSP) is given as “slightly inhibited binding”.

`CCCCOC(=O)[C@@]12C[C@@H]1[C@@H](n1cnc3c(NC)nc(C#Cc4ccc(Cl)s4)nc31)[C@H](O)[C@@H]2O` [compound 16, Butyl (1S,2R,3S,4R,5S)-4-(2-((5-chlorothiophen-2-yl)ethynyl)-6-(methylamino)-9H-purin-9-yl)-2,3-dihydroxybicyclo[3.1.0]hexane-1-carboxylate]: the inhibition at 10 µM on hDAT [1] was below -20%.

`CNc1nc(C#Cc2ccc(Cl)s2)nc2c1ncn2[C@H]1[C@H](O)[C@H](O)[C@]2(C(=O)OCCC(C)C)C[C@H]12` [compound 17, Isopentyl (1S,2R,3S,4R,5S)-4-(2-((5-chlorothiophen-2-yl)ethynyl)-6-(methylamino)-9H-purin-9-yl)-2,3-dihydroxybicyclo[3.1.0]hexane-1-carboxylate]: at hDAT [1], the inhibition at 10 µM was below -20%.

With `CNc1nc(C#Cc2ccc(Cl)s2)nc2c1ncn2[C@H]1[C@H](O)[C@H](O)[C@]2(C(=O)OCCC3CCCCC3)C[C@H]12` [compound 18, 2-Cyclohexylethyl (1S,2R,3S,4R,5S)-4-(2-((5-chlorothiophen-2-yl)ethynyl)-6-(methylamino)-9H-purin-9-yl)-2,3-dihydroxybicyclo[3.1.0]hexane-1-carboxylate], the inhibition at 10 µM at hDAT [1] was -20 to 20%.

As to `CNc1nc(C#Cc2ccc(Cl)s2)nc2c1ncn2[C@H]1[C@H](O)[C@H](O)[C@]2(C(=O)OCc3ccccc3)C[C@H]12` [compound 19, Benzyl (1S,2R,3S,4R,5S)-4-(2-((5-chlorothiophen-2-yl)ethynyl)-6-(methylamino)-9H-purin-9-yl)-2,3-dihydroxybicyclo[3.1.0]hexane-1-carboxylate], the inhibition at 10 µM on hDAT [1] was -20 to 20%.

`CNc1nc(C#Cc2ccc(Cl)s2)nc2c1ncn2[C@H]1[C@H](O)[C@H](O)[C@]2(C(=O)OCCc3ccccc3)C[C@H]12` [compound 20, 2-Phenylethyl (1S,2R,3S,4R,5S)-4-(2-((5-chlorothiophen-2-yl)ethynyl)-6-(methylamino)-9H-purin-9-yl)-2,3-dihydroxybicyclo[3.1.0]hexane-1-carboxylate]: on hDAT [1], the inhibition at 10 µM is -20 to 20%.

As for `CNc1nc(C#Cc2ccc(Cl)s2)nc2c1ncn2[C@H]1[C@H](O)[C@H](O)[C@]2(C(=O)OCCCc3ccccc3)C[C@H]12` [compound 21, 3-Phenylpropyl (1S,2R,3S,4R,5S)-4-(2-((5-chlorothiophen-2-yl)ethynyl)-6-(methylamino)-9H-purin-9-yl)-2,3-dihydroxybicyclo[3.1.0]hexane-1-carboxylate], the inhibition at 10 µM on hDAT [1] was -20 to 20%.

In the case of `CNc1nc(C#Cc2ccc(Cl)s2)nc2c1ncn2[C@H]1[C@H](O)[C@H](O)[C@]2(C(=O)O)C[C@H]12` [compound 22, (1S,2R,3S,4R,5S)-4-(2-((5-Chlorothiophen-2-yl)ethynyl)-6-(methylamino)-9H-purin-9-yl)-2,3-dihydroxybicyclo[3.1.0]hexane-1-carboxylic acid], the inhibition at 10 µM on hDAT [1] was below -20%.

`CNC(=O)[C@H]1O[C@@H](n2cnc3c(NC)nc(C#Cc4ccc(Cl)s4)nc32)[C@H](O)[C@@H]1O` [compound 27, (2S,3S,4R,5R)-5-(2-((5-Chlorothiophen-2-yl)ethynyl)-6-(methylamino)-9H-purin-9-yl)-3,4-dihydroxy-N-methyltetrahydrofuran-2-carboxamide]: the inhibition at 10 µM at hDAT [1] was below -20%. The “efficacy in increasing paw withdrawal threshold (PWT)” value in experiment [4] is listed as “fully efficacious”.

With `CCCNc1nc(C#Cc2ccc(Cl)s2)nc2c1ncn2[C@@H]1O[C@H](C(=O)NC)[C@@H](O)[C@H]1O` [compound 28, (2S,3S,4R,5R)-5-(2-((5-Chlorothiophen-2-yl)ethynyl)-6-(n-propylamino)-9H-purin-9-yl)-3,4-dihydroxy-N-methyltetrahydrofuran-2-carboxamide], the inhibition at 10 µM on hDAT [1] is below -20%. Further, the “efficacy in increasing paw withdrawal threshold (PWT)” value in experiment [4] is reported as “fully efficacious”.

By inhibition is commonly meant the relative decrease from the control value, in per cent. A word on the Ki: it is the equilibrium dissociation constant of an inhibitor or competing ligand from its target. Low values mean tighter binding, high ones weaker binding.
